Columns and labels:
[1] = test system: CPSF3-overexpressing L. donovani promastigotes; experiment: Drug sensitivity, CPSF3-overexpressing L. donovani promastigotes; format: cell-based; details: Leishmania donovani
Description: (§1) The clonal L. donovani cell line LdBOB (derived from MHOM/SD/62/1S-CL2D) was grown as promastigotes at 28 °C, as described previously. Bloodstream form T. brucei MiTat 1.2 clone 221a and its derived subline, 2T1, were cultured at 37 °C in the presence of 5% CO2 in HMI9-T medium, as described previously. T. brucei cell lines overexpressing CPSF3 and overexpressing a mutated version of CPSF3 (Asn232His) were generated as part of a previous study and cultured as described.[19]
(§2) L. donovaniCPSF3 gene (LdBPK_343210.1) was custom synthesized by GeneArt and ligated into the pIR1SAT vector via BglII restriction sites. Using the Q5 mutagenesis kit (NEB) and the pIR1SAT-LdCPSF3^WT construct as a template, mutations encoding A655C and Asn219His change to CPSF3^WT were introduced. Mutations were introduced using the specific primers 5′-GAGTACACGGCATCCGC-3′ and 5′-[…]-3′ and as per manufacturers’ instructions. Wild-type and mutated pIR1SAT constructs were digested with SwaI and transfected into L. donovani promastigotes, as previously described. Resistant clones were selected with nourseothricin (100 μg/mL), and two clones per transfection were selected for further study.
(§3) Drug sensitivity assays with wild-type and transgenic T. brucei and L. donovani cell lines were carried out as previously described.[31],[32]

[2] = test system: Trypanosoma brucei; design: method as in PMID 21738803; details: in vitro; read-out: EC50 against Trypanosoma brucei; cited from earlier work
[3] = test system: wild-type L. donovani promastigotes; experiment: Drug sensitivity, wild-type L. donovani promastigotes; format: cell-based; details: Leishmania donovani
Description: as §1, §3

[4] = test system: L. donovani; experiment: Intramacrophage L. donovani assay; format: cell-based; details: Leishmania donovani; Table 2; geometric mean of at least three independent assays
Description: (§4) L. infantum (MHOM/MA/67/ITMAP263) and L. donovani (MHOM/ET/67/L82) were maintained in the golden (Syrian) hamster (Mesocricetus auratus). Ex vivo amastigotes were collected from the spleen of an infected donor hamster using two centrifugation purification steps: 230g for 10 min, keeping the supernatant layer, and 4100g for 30 min, keeping the pellet. The spleen parasite burden was assessed using the Stauber technique.[25] For in vitro assays, the inoculum was prepared in RPMI-1640 medium, supplemented with 200 mM L-glutamine, 16.5 mM NaHCO3, and 5% inactivated fetal calf serum. For the in vivo model, an infection inoculum containing 2 × 10^7 amastigotes/100 μL was prepared in phosphate-buffered saline (PBS).
(§5) The assay was performed in sterile 96-well microtiter plates, each well containing 10 μL of the compound dilution and 190 μL of the PMM/amastigote inoculum (3 × 10^4 cells/4.5 × 10^5 parasites per well). Parasite multiplication was compared to untreated infected controls (100% growth) and uninfected controls (0% growth). After five-day incubation, total parasite burdens were microscopically assessed after staining the cells with a 10% Giemsa solution. The results were expressed as a percentage reduction in parasite burden compared to untreated control wells. EC50 values were determined using an extended dose range (2-fold compound dilutions, 8-point concentration curve). Miltefosine was used as the reference drug.[26] For selected compounds, this assay format was also run using the L. donovani inoculum.

[5] = test system: L. infantum; experiment: Intramacrophage L. infantum assay; format: cell-based; details: Leishmania infantum; Table 2; geometric mean of at least three independent assays; read-out: intramacrophage L. infantum EC50
Description: as §4, §5

[6] = PMM cytotoxicity assay; format: cell-based; details: mouse, primary peritoneal mouse macrophages (PMM); for EC50 at 3 days: Table 2, geometric mean of at least three independent assays
Description: (§6) Primary peritoneal mouse macrophages (PMM) were collected two days after peritoneal stimulation with a 2% potato starch suspension. MRC5SV2 cells (diploid human embryonic lung fibroblasts) were cultured in minimal essential medium (MEM) containing Earle’s salts, supplemented with L-glutamine, NaHCO3, and 5% inactivated fetal calf serum. All cultures and assays were conducted at 37 °C under an atmosphere of 5% CO2.
(§7) Assays were performed in sterile 96-well microtiter plates, each well containing 10 μL of the compound dilution and 190 μL of MRC5SV2 or PMM inoculum (3 × 10^4 cells/mL). Cell growth was compared to untreated controls (100% growth) and assay-media controls (0% growth). After three-day incubation, cell viability was assessed fluorometrically by adding resazurin (50 μL/well of a stock solution in phosphate buffer (50 μg/mL)), incubating for 4 h and measuring fluorescence (λex 550 nm, λem 590 nm). The results were expressed as a percentage reduction in cell growth compared to untreated control wells. […] Tamoxifen was included as the reference drug.

[7] = test system: CPSF3 (Asn219His)-overexpressing L. donovani promastigotes; experiment: Drug sensitivity, CPSF3 (Asn219His)-overexpressing L. donovani promastigotes; format: cell-based; details: for EC50: Leishmania donovani
Description: as §1, §2, §3

[8] = MRC5 cytotoxicity assay; format: cell-based; details: human, MRC5SV2 cells (human embryonic lung fibroblasts); Table 4; geometric mean of at least two independent tests
Description: as §6, §7

[9] = test system: L. infantum; experiment: L. infantum hamster model of VL; format: in vivo
Description: as §4
Female golden hamsters for the in vivo model of visceral leishmaniasis were purchased from Janvier, France (body weight 80–100 g). This study using laboratory rodents was carried out in strict accordance with all mandatory guidelines (EU directives, including the Revised Directive 2010/63/EU on the protection of Animals used for Scientific Purposes that came into force on 01/01/2013, and the declaration of Helsinki in its latest version) and was approved by the ethical committee of the University of Antwerp, Belgium (UA-ECD 2011-74). Female golden hamsters for the pharmacokinetic study were purchased from Vital River, Beijing, China. This study was conducted following institutional review and in accordance with institutional and national guidelines at WuXi AppTec (the Institutional Animal Care and Use Committee (IACUC)). Balb/c mice for the in vivo model of visceral leishmaniasis (LSHTM) were purchased from Charles River, U.K., and related studies were conducted under license PPL 70/8427 from the U.K. Home Office.
Female golden hamsters were randomly allocated to experimental groups of six animals each, based on body weight. At the start of the experiment (Day 0), each animal was infected with L. infantum or L. donovani inoculum, delivered by intracardial injection. Six hamsters were assigned to the vehicle-treated, infected control group. Six hamsters were assigned per group (1 group/compound) for the evaluation of compound and miltefosine. […] At Day 35 (10 days after the final oral dose), all animals were euthanized and autopsies were conducted. The study evaluated the following parameters. • 1. Adverse effects: all animals were observed daily for the occurrence/presence of adverse effects. • 2. Body weight: all animals were weighed twice per week to monitor general health. • 3. Parasite burden: amastigote burdens in each target organ (liver, spleen, and bone marrow) were determined at Day 35. The organs of individual animals were weighed (except for bone marrow). Impression smears were stained with Giemsa for microscopic examination of the total amastigote burden, defined as the mean number of amastigotes per cell multiplied by the number of cells counted (minimum 500 nuclei); the results were expressed as a percentage reduction in amastigote burden compared to vehicle-treated, infected control animals.

[10] = Liver microsome stability, human; format: in vitro ADME; details: human liver microsomes, pH 7.4, Table 4, read-out: HLM Clint
Description: Tests were performed by WuXi AppTec, China. Test compounds (at 1 μM) or positive controls (testosterone, propafenone, and diclofenac) were incubated at 37 °C with liver microsomes from Balb/c mouse, golden (Syrian) hamster, Sprague-Dawley rat, Beagle dog, or human in the presence of a NADPH regenerating system and phosphate buffer (100 mM, pH 7.4) at 0.4 or 0.8 mg/mL microsomal protein. The samples were removed at time intervals from 0 to 60, 90, or 120 min and immediately mixed with cold methanol supplemented or not with acid (3% formic acid) and centrifuged prior to analysis by LC-MS/MS using tolbutamide or propranolol as internal standards.

CC1(C)OB(O)c2cc(NC(=O)c3ccc(F)cc3C(F)(F)F)ccc21 [Compound 1, acoziborole, reference compound]
EC50 [1]: 2800 ± 100 nM | EC50 [2]: 795 nM | EC50 [3]: 2500 ± 100 nM | EC50 [4]: 59000 nM | EC50 [5]: > 64000 nM | EC50 at 3 days [6]: > 64000 nM | CC50 at 3 days ([6]; supplement csv): > 64000 nM | EC50 [7]: 11700 ± 400 nM | fold reduction in susceptibility ([7]; promastigotes overexpressing mutated CPSF3): 5 fold

O=C(Nc1ccc2c(c1)B(O)OC2)c1ccc(F)cc1C(F)(F)F [Compound 3]
EC50 [1]: 1400 ± 30 nM | CC50 at 3 days [8]: > 64000 nM | EC50 [3]: 1200 ± 20 nM | EC50 [4]: 1200 nM | reduction in parasite burden, bone marrow ([9]; 25 mg/kg QD for 5 days): 81.6% | reduction in parasite burden, spleen ([9]; 25 mg/kg QD for 5 days): 81.8% | reduction in parasite burden, liver ([9]; 25 mg/kg QD for 5 days, vs vehicle-treated infected controls): 87.8% | reduction in parasite burden, bone marrow ([9]; 50 mg/kg QD for 5 days): 91.2% | reduction in parasite burden, liver ([9]; 50 mg/kg QD for 5 days): 97.4% | reduction in parasite burden, spleen ([9]; 50 mg/kg QD for 5 days): 95.0% | reduction in parasite burden, bone marrow ([9]; 100 mg/kg QD for 5 days): 88.3% | reduction in parasite burden, liver ([9]; 100 mg/kg QD for 5 days): 98.6% | reduction in parasite burden, spleen ([9]; 100 mg/kg QD for 5 days): 96.0% | EC50 [5]: 2700 nM | EC50 at 3 days [6]: > 64000 nM | CC50 at 3 days ([6]; Table 4, geometric mean of at least two independent tests): > 64000 nM | EC50 [7]: 4400 ± 200 nM | microsomal CLint at 2 h, 1 µM [10]: 0.8 µL/min/mg
